In assay [1] the test system is mice. Nature of the assay: Porsolt's swim test (behavioural despair test). The class given is in vivo, mouse. The following applies: for Duration of immobility [seconds] ± Standard Error of Mean: last 4 of 6 minutes. Here is the method:
The “Behavioural Despair Test” or “Porsolt's Forced Swim Test” is a validated animal model for depression (see T, Nagatsu 2004 Neuro Toxicology, 25:11-20, and Porsolt et al. 1977, Arch. Int. Pharmacodyn., 229: 327-336). It responds to enhancement of the trans-mission of several neurotransmitters including serotonine, dopamine and noradrenaline.
The test, which detects antidepressant activity, was carried out as described by Porsolt et al supra. Mice which are forced to swim in a situation from which they cannot escape rapidly become immobile. Antidepressants decrease the duration of immobility.
Mice were individually placed in a cylinder (Height=24 cm, Diameter=13 cm) containing 10 cm water (22° C.) from which they could not escape. The mice were placed in the water for 6 minutes and the duration of immobility during the last 4 minutes was measured.
10 mice were studied per each of the four groups. The test was performed blind, i.e. the person carrying out the experiment was different from the person injecting the mice and didn't thus know to which of the four groups each mouse belonged.
3-n-butylphthalide (98.5% purity) was evaluated at 3 doses each: at 10, 30 and 80 mg/kg body weight, administered intraperitoneally 30 minutes before the test, and compared with a control group. The thus administered 3-n-butylphthalide was dissolved in a saline solution containing 3 weight-% DMSO and 3 weight-% Tween® 80 (so called “vehicle”), To the control group the vehicle consisting of the saline solution containing 3 weight-% DMSO and 3 weight-% Tween® 80 was administered intraperitoneally.

Assay [2] concerns mice. Kind of assay: Primary observation (Irwin) test in the mouse. It counts as in vivo. The conditions noted are these: for overall effect in the Irwin test: all doses tested. Here is the method:
The method, which detects the first toxic dose, the active dose-range and the principal effects of a test substance on behavior and physiological function, follows that described by Irwin 1968 Psychopharmaco, 13:222-257,
3 treated groups were compared with the same control at any one time. All animals within a treatment group were observed simultaneously.
Behavioral modifications, physiological and neurotoxicity symptoms, pupil diameter and rectal temperature were recorded according to a standardized observation grid derived from that of Irwin, supra. The grid contains the following items: lethality*, convulsions*, tremor*, Straub*, sedation, excitation, abnormal gait* (rolling, tip-toe), jumps*, motor incoordination*, writhes*, piloerection*, stereotypies* (sniffing, chewing, head movements), head twitches*, scratching*, respiration*, aggressiveness*, fear, reactivity to touch, muscle tone, loss of righting reflex, ptosis, exopthalmos, loss of grasping, akinesia, catalepsy, loss of traction, loss of corneal reflex, analgesia, defecation, salivation, lacrimation, pupil diameter (Unit=1/45 mm) and rectal temperature.
Observations were performed 15, 30, 60, 120 and 180 minutes after administration of the test substance and also 24 hours later. The symptoms marked (*) were observed continuously from 0 to 15 minutes after administration. 5 mice were studied per group.
3-Butylphthalide (98.5% purity) was solubilized in 3% DMSO, 3% Tween 80 in saline (0.9% w/v NaCl) and injected into mice intraperitoneally.

The target in assay [3] is T1, Monoamine oxidase B (MAO-B) (Homo sapiens, UniProt P27338).
T1 sequence (P27338 1-520): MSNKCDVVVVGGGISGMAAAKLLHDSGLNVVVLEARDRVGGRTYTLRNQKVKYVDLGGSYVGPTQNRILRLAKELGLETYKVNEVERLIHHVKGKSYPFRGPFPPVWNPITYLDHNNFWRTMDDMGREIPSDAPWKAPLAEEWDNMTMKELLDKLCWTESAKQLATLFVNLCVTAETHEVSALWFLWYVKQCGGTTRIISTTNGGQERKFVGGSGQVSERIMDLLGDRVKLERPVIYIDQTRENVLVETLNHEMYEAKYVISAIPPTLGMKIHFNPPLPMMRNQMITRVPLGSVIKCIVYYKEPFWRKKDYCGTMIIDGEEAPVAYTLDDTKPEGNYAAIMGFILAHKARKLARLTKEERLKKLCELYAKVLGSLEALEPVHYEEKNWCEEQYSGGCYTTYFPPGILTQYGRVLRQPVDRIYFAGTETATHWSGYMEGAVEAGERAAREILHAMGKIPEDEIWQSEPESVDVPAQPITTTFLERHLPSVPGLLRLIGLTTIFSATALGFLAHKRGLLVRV
Nature of the assay: Monoaminooxidase B inhibition (H2O2/vanillic acid/HRP readout). It counts as biochemical. How it is done: The organic amines p-tyramine or benzylamine were used as substrates for the Monoamine oxidase A (MAO-A) and B (MAO-B) enzymes respectively. The H2O2 produced by this reaction was quantified by reaction with vanillic acid, catalysed by horse radish peroxidase (HRP).
The reactions were carried out in polystyrene microtitre plates. The MAO enzymes (final concentration 2 U/ml) were mixed with either p-tyramine (Sigma, final concentration 0.5 mM) or benzylamine (Sigma, final concentration 0.5 mM) as appropriate and the chromogenic solution (containing vanillic acid (Fluka), 4-aminoantipyrine (Fluka) and horse radish peroxidase (Sigma), final concentrations 0.25 mM, 0.125 mM and 1 U/ml respectively) in 0.2 M potassium phosphate buffer pH 7.6. The reactions were followed in a microtitre plate absorbance reader eg Spectramax M5 (Molecular Devices Corporation). Absorbance readings at 495 nm were taken every 15 seconds for 40 minutes and the initial reaction velocities calculated by linear regression using SOFTmaxPro (Molecular Devices Corporation).
The effect of ligustilide, 3-butylphthalide, senkyunolide C and cnidilide on the monoamine oxidase enzymes was determined by their inclusion in the assay at a range of concentrations between 0.03 and 100 μM for 10 minutes prior to and during the incubation with substrate. To determine the effect of the compounds on the HRP catalyzed portion of the reaction, the MAO enzyme was replaced by H2O2 (Molecular Probes, final concentration 0.2 mM). The reactions containing MAO-A and MAO-B were both inhibited by […] according to formula I in a dose dependent manner, whilst the control reaction, was unaffected. The measured IC50 values for inhibition of monoamine oxidase activity by ligustilide, 3-butylphthalide, senkyunolide C and enidilide, respectively, are shown in Table 3.

Where [4] appears, read: 100 mg/kg, 15 to 60 minutes after administration.

The source of these data is patent US20100184852A1, “ORGANIC COMPOUNDS FOR TREATMENT OF DISORDERS CONNECTED TO IMPAIRED NEUROTRANSMISSION” (priority 2006, published 2010).

pIC50: −log10 of the molar value.

As usually defined, the pIC50 is −log10 of the IC50, conventionally taken in molar units. The low end stands for a large IC50, the high end for a small IC50. Regarding `CCCC[C@@H]1OC(=O)c2ccccc21` (stereo in doubt) [3-n-butylphthalide, 3-n-Butylphthalide], the “Duration of immobility [seconds] ± Standard Error of Mean” value in the assay with mice [1] (10 mg/kg body weight) stood at 132.4 ± 9.3 s; in the assay with mice [1] (30 mg/kg body weight) it was 128.0 ± 15.3 s; with mice [1] (80 mg/kg body weight), 129.0 ± 15.4 s. Also, the “reduction of the immobility time” value with mice [1] (between 10 and 80 mg/kg, tendency) is given as “approximately 18%”. The muscle tone result in the assay on mice [2] (100 mg/kg, 15 to 60 minutes) is listed as “reduced muscle tone”; in the assay on mice [2] (200 mg/kg), “reduced muscle tone”; with mice [2] (300 mg/kg, 120 minutes) it was “reduced”. Moreover, the sedation entry is “slight sedative effects” with mice [2] (setting [4]); “moderate sedative effects” in the assay with mice [2] (200 mg/kg, up to 120 minutes); “marked sedation” with mice [2] (300 mg/kg, 15 minutes and 30 minutes); “moderate sedation” with mice [2] (300 mg/kg, 60 minutes and 120 minutes); “slight sedation” with mice [2] (300 mg/kg, 180 minutes). Besides, the fear result is “reduced fear” in the assay with mice [2] (200 mg/kg, after 60 minutes) and “reduced” with mice [2] (300 mg/kg, 120 minutes). In addition, the “overall effect in the Irwin test” value in the assay with mice [2] is “dose dependent sedative and muscle relaxant effect”; in the assay on mice [2] (listed as 3-butylphthalide), “dose dependent sedative, fear reducing and muscle relaxant effect”. Besides, the pIC50 in assay [3] was 4.25.
Regarding `CCC/C=C1\OC(=O)C2=C1CCC=C2` [Ligustilide], the “Duration of immobility [seconds] ± Standard Error of Mean” value in the assay with mice [1] (10 mg/kg body weight) stood at 128.9 ± 15.1 s; with mice [1] (30 mg/kg body weight), 164.2 ± 15.5 s. Further, the “reduction of the immobility time” value in the assay with mice [1] (10 mg/kg, tendency) is listed as “approx. 18%”; in the assay with mice [1] (higher doses (30 and 80 mg/kg)), “not at the higher doses”. For the same molecule, the sedation result was “slight sedation” with mice [2] (30 mg/kg, 30 minutes); “slight sedation” in the assay on mice [2] (setting [4]); “slight” in the assay with mice [2] (200 mg/kg, 180 minutes); “slight-to-moderate” in the assay with mice [2] (200 mg/kg, up to 120 minutes); “moderate” in the assay with mice [2] (300 mg/kg, 15 to 60 minutes); “slight” in the assay on mice [2] (300 mg/kg, 120 to 180 minutes). For the same molecule, the muscle tone entry with mice [2] (100 mg/kg, 15 to 60 minutes) was “decreased muscle tone”; with mice [2] (200 mg/kg), “decreased muscle tone”; in the assay on mice [2] (300 mg/kg, 15 to 180 minutes), “decreased muscle tone”. Moreover, the “overall effect in the Irwin test” value in the assay with mice [2] was “dose dependent sedative and muscle relaxant effect”. The molecule further had a pIC50 in assay [3] of 4.60.
